According to US5104852A, “Method for the inhibition of the proliferation of cancer cells in a tumor sensitive to treatment with a selenodithiol by the injection into the tumor of a selenodithiol such as selenodiglutathione” (The Ohio State University, priority 1991, dated 1992):

What was measured:
[1] = tested on: secondary superficial tumors; experiment: Injection at site distant from the tumor; format: in vivo, rats; details: effective dosages injected at site distant from the tumor
Procedure: It has further been discovered that rats which are injected with effective dosages of GSSeSG at site distant from the tumor will still kill the cancer tumors.

[2] = tested on: peripheral blood lymphocytes; experiment: Sister Chromatid Exchange (mutagenicity); format: cell-based, human; details: FIG. 2, compared with selenite and selenomethionine
Source text: FIG. 2 describes the effect that GSSeSG has with respect to the mutagenicity of three selenium containing, cancer treating agents as a function of their respective concentrations. More particularly, the preferred selenodithiol, GSSeSG is contrasted with two other selenium containing compounds, selenite and selenomethionine in the treatment of peripheral blood lymphocytes, i.e., normal human cells taken from different sections of the body. […] As one in the art is aware, in the technique known as Sister Chromatid Exchange (SCE) the particular nucleotide components which comprise the DNA genetic code cross over to form cell mutations which lead to the birth and growth of rapidly dividing neoplastic cells.

[3] = tested on: DMBA (7,12-dimethylbenz(a)anthracene) induced tumors; experiment: DMBA-induced tumors in rats, injection of agents (Table 1, FIG. 3); format: in vivo
Source text: The Table contrasts the results obtained by the desired dosage with the results obtained from four other groups of ten rats; the rats in each group being inoculated with cancer immunotoxins in differing dosages of both GSSeSG, retinol (HPR) and mixtures of each, as well as a control sample of […] which were not administered with cancer treating agents. All one hundred rats were inoculated with DMBA (7,12-dimethylbenz(a)anthracene) so as to induce cancer cell formation, which was then allowed to form tumors over a period of two months prior to testing. […] Thus, Table 1 clearly illustrates both the effectiveness of GSSeSG when utilized in the desired range of proportions and also the fact that even relatively small variations in excess of the crisis zone in its administration will cause severe damage to the host subject, while the proper range of dosages is substantially non-toxic to the treated host.

[4] = tested on: Malignant Mouse Lymphoid Cells; details: intraperitoneal injections, mice previously inoculated with tumor cells, versus untreated control; cited from earlier work
human tumor cell lines = experiment: Cell culture assay (microculture tetrazolium/MTT assay); format: cell-based
Source text: The purpose of the cell culture assay is a method for measuring at what concentration of the cancer treating agent will inhibit neoplastic cell division or protein synthesis, and thus cause the death of the neoplastic cells. The particular assay technique is a modification of that described by Mosmann, Jour. of Immunol. Meth., 65, 1983, pp. 55-63. The cell lines used for the in vitro assay are: […]
The plating density of each cell type used in the assay is set forth below: […]
The procedure followed involved adding for each cell type 200 microliters of the cell suspension at the concentration determined above, to each well of a 96-well plate. The plates were allowed to incubate for twenty four hours at 37° C. and humidified in the presence of a 5% CO2 atmosphere, whereupon 20 microliters of GSSeSG concentrations ranging from 10^-8 M to 10^-4 M were added to the wells located on the plate. A variety of concentrations of cycloheximide and adriamycin were utilized as a control. The resulting plates were incubated for six days at 37° C., humidified in a 5% CO2 atmosphere and on the final day of the assay, 20 μl were added to each well of [MTT 3-(4,5-dimethylthiazol-2-yl)-2,5-diphenyl tetrazolium bromide], obtained from Sigma Cat #M2128. The MTT is prepared by combining 5mg/ml of a phosphate buffered saline (PBS) solution. […] Upon completion, the optical density of each well was read on an elisa plate reader set at 570nm (test sample) and 630nm (for reference).
FIGS. 4 through 11 provide comparisons of the effects at increasing concentrations of adriamycin and GSSeSG as measured by variations in optical density of various cell solutions. […] Variations in optical density, measured by a spectrophotometer, are indicative of the level of cellular activity. […]

[5] = molecular target: T1, elongation factor 2 (EF-2) (Rattus norvegicus, UniProt P05197); details: cell-free system derived from rats; cited from earlier work
T1 construct: in a cell-free system derived solely from rats

rat mammary tumor = experiment: Direct injection into rat mammary tumor (FIG. 12, FIG. 13); format: in vivo
Procedure: The tumor was induced in each rat by the administration of 7,12-dimethylbenz(a)anthracene and allowed to proliferate to the predetermined sized range of 1.5 to 2.5 centimeters in diameter. The selenodiglutathione was injected at a level of 700 micrograms directly into the central region of the tumor mass fifteen times over the course of thirty days.
FIG. 13 illustrates a table comparing the volume changes of three rat mammary cancer tumors injected over time. The curve marked "C" represents the volume increase in a control tumor injected with eluate from the column but with no selenodithiol. Curves "L" and "H" represent cancer tumors injected according to different treatment schedules of selenodiglutathione. The "L" tumor received a dose of selenodiglutathione of 1.46cc of 7×10^-3 M every forty eight hours for twenty eight days while the "H" tumor received a dose of selenodiglutathione of 2.8cc of 7×10^-3 M every ninety six hours for twenty eight days. […] The control tumor, C, continued to increase in volume dramatically.

EF-2 = EF-2 (Rattus norvegicus, UniProt P05197); details: in vitro amino acid incorporation; cited from earlier work
[6] = tested on: DU-145 Human Prostate Carcinoma Cells; details: in vitro; cited from earlier work
[7] = tested on: DMBA-induced mammary tumorigenesis; details: cited from earlier work
[8] = tested on: Human Breast Cancer Cells; details: parenteral administration, mice; cited from earlier work
[9] = 1 μg per gram of rat body weight
[10] = retinol alone or GSSeSG mixed with retinol, groups of ten rats

SMILES: N[C@@H](CCC(=O)N[C@@H](CS[Se]SC[C@H](NC(=O)CC[C@H](N)C(=O)O)C(=O)NCC(=O)O)C(=O)NCC(=O)O)C(=O)O [GSSeSG, selenodiglutathione]
- effect on tumors distant from the point of injection [1]: disappearance of secondary superficial tumors
- number of Sister Chromatid Exchanges (inducible mutation) [2]: low number
- effect on cancer cells [3, 9]: substantial elimination of the cancer cells
- harm to the rats as indicated by bodyweight [3, 9]: substantially no harm to the rats
- mortality of rats ([3]; 2 μg of GSSeSG per gram of bodyweight, ten rats, seventy nine days): all but one of these specimens are dead
- life span of the animals [4]: increased the life span
- tumor growth [4]: inhibited the tumor growth
- concentration up to which neoplastic cell division increases (human tumor cell lines; FIG. 1): up to 10^-6 M
- concentration at which neoplastic cells survive (purple solution obtained) (human tumor cell lines; MTT, six days incubation): less than 10^-6 M
- concentration inhibiting neoplastic cell division or protein synthesis (purple solution not obtained) (human tumor cell lines; MTT, six days incubation): at least 10^-5 M
- effectiveness in inhibiting protein synthesis versus sodium selenite or oxidized glutathione [5]: substantially more effective
- tumor volume change, "L" tumor (rat mammary tumor; 1.46cc of 7×10^-3 M every forty eight hours for twenty eight days, FIG. 13): stopped growing
- tumor volume change, "H" tumor (rat mammary tumor; 2.8cc of 7×10^-3 M every ninety six hours for twenty eight days, FIG. 13): decreased in volume to a level significantly below the initial volume
- detrimental effect to the animal (rat mammary tumor; 700 micrograms into central region of tumor, fifteen times over thirty days): without any detrimental effect
- tumor size (rat mammary tumor; 700 micrograms into central region of tumor, fifteen times over thirty days, FIG. 12): decreased dramatically

SMILES: CC1=C(/C=C/C(C)=C/C=C/C(C)=C/CO)C(C)(C)CCC1 [retinol, reference compound]
- damage to the rats (bodyweight column) [3, 10]: severe damage to the rats
- effect on cancer [3, 10]: effective in arresting the cancer

SMILES: O=[Se](O)O [sodium selenite]
- concentration that can inhibit EF-2 (EF-2): 11 µM
- growth of human prostate carcinoma cells [6]: inhibits the growth
- tumorigenesis, high fat fed animals ([7]; high fat fed rats): did not respond as favorably
- tumorigenesis, low fat diets ([7]; rats on low fat diets): decrease tumorigenesis
- development of cancerous tumors [8]: completely inhibits
